Laboratory results taken from paper PMC13439108, “An antibody–drug conjugate active against antibiotic-resistant Neisseria gonorrhoeae” (Proceedings of the National Academy of Sciences of the …, 2026).
≈ marks a conversion by molar mass, not a printed value. Where a SMILES comes first, the peptide text is derived from it. [ ]: non-standard residue; d: D form. The star is where a group is joined. d(aIle) = CC[C@H](C)[C@@H](N)C(=O)O; dDab = NCC[C@@H](N)C(=O)O; Octanoyl = CCCCCCCC(=O)*; Dab = NCC[C@H](N)C(=O)O; AEEA = NCCOCCOCC(=O)O

Experiments:
N. gonorrhoeae FA1090 [1] = assay: microbe, parasite or virus in culture; conditions: FA1090, FB
Protocol: 37°C, in 5% CO2 then 10 μl aliquots plated onto GCB agar. The MIC was defined as the lowest concentration of an antimicrobial that prevented bacterial growth.
Determination of N. gonorrhoeae resistance to Oct-TriA1
Single colonies of N. gonorrhoeae FA1090 were inoculated into 2 mL of FB media supplemented with 1% Vitox (Oxoid) and grown overnight. After 24 hours, 240 µl of a 1/ 5,000 dilution of FA1090 in 2x FB was added to a 48-well plate containing 2-fold dilutions of either Oct-TriA1-c (final concentration, 12.5 µg/ml to 0.2 µg/ml) or ciprofloxacin (final concentration, 16.4 to 0.001 µg/ml) in a total volume of 480
µl. Plates were incubated at 37 °C, 5% CO2 with shaking (180 rpm). After 24 hours, ODA600 of each well […]
to fresh media containing all concentrations of antimicrobials for a total of 35 days. […]

N. gonorrhoeae WHO L = conditions: microdilution in FB, ~5 × 10^4 CFU, 24 hr, 37°C, 5% CO2
Protocol: (§1) columns (ThermoFisher scientific). Activated mAb was added to 0.9 mg of Oct-TriA1 analogues (synthesised by ISCA Biochemicals, UK) and incubated at room temperature for 60 min. ADCs were dialysed using slide-A-Lyzer cassette (20K MWCO, ThermoFisher scientific) into PBS overnight at 4 °C […]
(§2) MALDI-TOF MS analysis for determination of intact mass mAbs or ADCs with a concentration of 1 mg/mL were acidified with 1% trifluoroacetic acid and mixed with Super DHB matrix, 1 μl was spotted onto an MTP Anchorchip 600/384. For every mAb, three sample spots were prepared from the same solution using three protocols advised by the manufacturer. MALDI-TOF measurements were performed on a Microflex LRF mass spectrometer, equipped with a 60Hz nitrogen laser at 337nm. Number of peptides conjugated was calculated using the MALDI-TOF molecular weights (MW) [MW = M+] of each ADC, the unconjugated antibody (mAb), and the molecular weights of Oct-TriA1 analogues using the following equation.
(§3) Number of peptides = MW ADC − MW mAb […]
(§4) Determination of Oct-TriA1 Minimum Inhibitory Concentration (MIC)
(§5) N. gonorrhoeae was resuspended in PBS to an ODA600 1.0, and ̴5 × 10^4 CFU added to wells of a microdilution plate containing dilutions of antimicrobials in FB. Plates were incubated for 24 hr at […]
(§6) 37°C, in 5% CO2 then 10 μl aliquots plated onto GCB agar. The MIC was defined as the lowest concentration of an antimicrobial that prevented bacterial growth. […]
(§7) Peptide concentration in ADC preparations
(§8) Peptide concentrations for ADCs were calculated from the antibody concentration, the drug-to-antibody ratio (DAR), and the peptide molecular weight using the following formula:
(§9) Conc. peptide (µg/mL) = Conc. ADC (µg/mL) × DAR x MWpeptide (Da) […]
(§10) Where Conc. ADC is the ADC/ mAb concentration, MWADC is the mAb molecular weight (150 kDa), MWpeptide is the peptide molecular weight and DAR is the average number of peptides per conjugate.
(§11) This formula was used to convert ADC concentrations to peptide concentrations for all assays. […]

[2] = tested on: N. gonorrhoeae FA1090ΔmtrE; conditions: microdilution in FB, ~5 × 10^4 CFU, 24 hr, 37°C, 5% CO2
Protocol: as §1, §2, §3, §4, §5, §6, §7, §8, §9, §10, §11

N. gonorrhoeae WHO F = conditions: microdilution in FB, ~5 × 10^4 CFU, 24 hr, 37°C, 5% CO2, lowest concentration preventing growth
Protocol: as §1, §2, §3, §4, §5, §6, §7, §8, §9, §10, §11

N. gonorrhoeae WHO N = conditions: microdilution in FB, ~5 × 10^4 CFU, 24 hr, 37°C, 5% CO2
Protocol: as §1, §2, §3, §4, §5, §6, §7, §8, §9, §10, §11

N. gonorrhoeae WHO G = conditions: microdilution in FB, ~5 × 10^4 CFU, 24 hr, 37°C, 5% CO2
Protocol: as §1, §2, §3, §4, §5, §6, §7, §8, §9, §10, §11

N. gonorrhoeae WHO P = conditions: microdilution in FB, ~5 × 10^4 CFU, 24 hr, 37°C, 5% CO2
Protocol: as §1, §2, §3, §4, §5, §6, §7, §8, §9, §10, §11

N. gonorrhoeae WHO K = conditions: microdilution in FB, ~5 × 10^4 CFU, 24 hr, 37°C, 5% CO2
Protocol: as §1, §2, §3, §4, §5, §6, §7, §8, §9, §10, §11

N. gonorrhoeae MS11ΔIgAP = conditions: microdilution in FB, ~5 × 10^4 CFU, 24 hr, 37°C, 5% CO2
Protocol: as §1, §2, §3, §4, §5, §6, §7, §8, §9, §10, §11

N. gonorrhoeae WHO M = conditions: microdilution in FB, ~5 × 10^4 CFU, 24 hr, 37°C, 5% CO2
Protocol: as §1, §2, §3, §4, §5, §6, §7, §8, §9, §10, §11

N. gonorrhoeae MS11ΔmtrE = conditions: microdilution in FB, ~5 × 10^4 CFU, 24 hr, 37°C, 5% CO2
Protocol: as §1, §2, §3, §4, §5, §6, §7, §8, §9, §10, §11

N. gonorrhoeae FA1090 [3] = conditions: microdilution in FB, ~5 × 10^4 CFU, 24 hr, 37°C, 5% CO2
Protocol: as §1, §2, §3, §4, §5, §6, §7, §8, §9, §10, §11

N. gonorrhoeae WHO O = conditions: microdilution in FB, ~5 × 10^4 CFU, 24 hr, 37°C, 5% CO2
Protocol: as §1, §2, §3, §4, §5, §6, §7, §8, §9, §10, §11

N. gonorrhoeae MS11 = conditions: microdilution in FB, ~5 × 10^4 CFU, 24 hr, 37°C, 5% CO2
Protocol: as §1, §2, §3, §4, §5, §6, §7, §8, §9, §10, §11

[4] = tested on: N. gonorrhoeae FA1090ΔIgAP; conditions: microdilution in FB, ~5 × 10^4 CFU, 24 hr, 37°C, 5% CO2
Protocol: as §1, §2, §3, §4, §5, §6, §7, §8, §9, §10, §11

[5] = tested on: N. gonorrhoeae G97687 (MDR isolate); conditions: G97687, MDR isolate resistant to ESCs and azithromycin; microdilution in FB, 24 hr, 37°C, 5% CO2
Protocol: as §4, §5, §6, §7, §8, §9, §10, §11

HK-2 cells = assay: LDH release cytotoxicity; type: cell-based, human; conditions: n = 3
Protocol: HK-2 cells (CRL-2190™, Americab Type Culutre Collection (ATCC)), a proximal renal tubule cell(7), and End1/E6E7 (CRL-2615™, ATCC) upper cervical epithelial cells(8) were cultured in Keratinocyte Serum Free Medium (Invitrogen, Life Technologies Ltd.) with human recombinant EGF (5 ng ml-1) and bovine pituitary extract (0.05 mg ml−1) at 37°C in 5% CO2. Cells were seeded in 96-well plates (Corning, Polystyrene) at a density of 2 × 10^4 cells/well 24 hr prior; Triton-X-100 (0.1%) and Digitonin (30 μg ml−1) were used as controls. Lactate dehydrogenase (LDH) release was measured using the Biovision kit; the OD490 was assessed in a SpectraMax M5 plate reader. […]

human erythrocytes = assay: Hemolysis of human erythrocytes; type: cell-based
Protocol: For hemolysis, whole human blood (1 ml; K2EDTA; Cambridge Bioscience) was washed in PBS then 0.5% added to an equal volume of peptides or ADCs in 96-well V-bottomed polypropylene plates and incubated at 37°C for 1 hr. Cells were pelleted at 1,000 × g for 10 min and the absorbance at OD415 measured. Positive (melittin, 2.5 µM, Merck Life Science) and negative (PBS) controls were normalised as 100 and 0% hemolysis, respectively. […]

## CCCCCCCC(=O)N[C@@H](C(=O)N[C@H](CCN)C(=O)NCC(=O)N[C@H](CO)C(=O)N[C@H](Cc1c[nH]c2ccccc12)C(=O)N[C@@H](CO)C(=O)N[C@@H](CCN)C(=O)N[C@H](CCN)C(=O)N[C@@H](Cc1ccccc1)C(=O)N[C@@H](CCC(=O)O)C(=O)N[C@H](C(=O)N[C@@H](C(=O)N[C@@H](C)C(=O)NCCOCCOCC(=O)N[C@@H](CC(C)C)C(=O)N1CCC[C@H]1C(=O)N[C@@H](CCCNC(=N)N)C(=O)N1CCC[C@H]1C(=O)N1CCC[C@H]1C(=O)O)[C@@H](C)CC)C(C)C)C(C)C [Oct-TriA1-c] (Octanoyl-[dV][dDab]G[dS][dW]S[Dab][dDab]FEV[d(aIle)]A[AEEA]LPRPP-OH)
N. gonorrhoeae FA1090 [1]; 24 h, MIC = less than 50% growth (OD600) vs no antimicrobial
  MIC at start of resistance evolution: 1.56 µg/mL
N. gonorrhoeae FA1090 [1]; serial passage 35 d, MIC = less than 50% growth (OD600)
  MIC after 35 d of resistance evolution: 12.5 µg/mL
N. gonorrhoeae WHO L
  MIC: 1.56 µg/mL (≈ 0.701 µM)
[2]
  MIC: 0.78 µg/mL (≈ 0.35 µM)
N. gonorrhoeae WHO F
  MIC: 1.56 µg/mL (≈ 0.701 µM)
N. gonorrhoeae WHO N
  MIC: 3.13 µg/mL (≈ 1.41 µM)
N. gonorrhoeae WHO G
  MIC: 3.13 µg/mL (≈ 1.41 µM)
N. gonorrhoeae WHO P
  MIC: 3.13 µg/mL (≈ 1.41 µM)
N. gonorrhoeae WHO K
  MIC: 3.13 µg/mL (≈ 1.41 µM)
N. gonorrhoeae MS11ΔIgAP
  MIC: 6.25 µg/mL (≈ 2.81 µM)
N. gonorrhoeae WHO M
  MIC: 1.56 µg/mL (≈ 0.701 µM)
N. gonorrhoeae MS11ΔmtrE
  MIC: 1.56 µg/mL (≈ 0.701 µM)
N. gonorrhoeae FA1090 [3]
  MIC: 0.78 µg/mL (≈ 0.35 µM)
N. gonorrhoeae WHO O
  MIC: 3.13 µg/mL (≈ 1.41 µM)
N. gonorrhoeae MS11
  MIC: 3.13 µg/mL (≈ 1.41 µM)
[4]
  MIC: 0.78 µg/mL (≈ 0.35 µM)
[5]
  MIC: 1.56 µg/mL (≈ 0.701 µM)
HK-2 cells; 2 × 10^4 cells/well, LDH release OD490, 4 h
  LDH (EC50) 4 h: 86.42 µg/mL
HK-2 cells; LDH release OD490, 24 h
  LDH (EC50) 24 h: 57.71 µg/mL
HK-2 cells; LDH release OD490, 48 h
  LDH (EC50) 48 h: 50.03 µg/mL
Human erythrocytes; compared with unmodified Oct-TriA1
  fold reduced hemolytic activity: > 25 fold
Human erythrocytes; concentration of peptide or ADC that lyses 50% of erythrocytes, washed human blood 0.5%, 37°C, 1 hr, OD415, melittin 2.5 µM = 100%, PBS = 0%, n = 3
  Hemolysis (HC50): >1,000 μg mL^−1
Human erythrocytes; human erythrocytes, 37°C, 1 hr, OD415
  HC50: > 1 mg/mL
